From article PMC2904697, “A Screen for Kinetochore-Microtubule Interaction Inhibitors Identifies Novel Antitubulin Compounds” (PLoS ONE, 2010)

Experiments:
[1] = test system: MTs assembled from αβ-tubulin; assay: Depolymerization of non-stabilized MTs in vitro (turbidity at 350 nm); assay type: biochemical; settings: for Fold difference between concentration inhibiting tubulin polymerization and that needed to disassemble MTs: Fig. 5B versus Fig. 5A
Experimental: (§1) To quantify the antitubulin activity of compound B, we added 1–50 µmol/l compound B to 10 µmol/l αβ-tubulin. […] For this purpose, MTs were assembled from 10 µmol/l αβ-tubulin; 5 min into the reaction compound B was added in concentrations up to 200 µmol/l. MT depolymerization was tracked as a decrease in turbidity at 350 nm (Fig. 5B).
(§2) Polymerization of 10 µmol/l αβ-tubulin in BRB-80 buffer was monitored turbidimetrically at 350 nm for 15 min in a temperature-controlled spectrophotometer (37°C; SpectraMax Plus^384, Molecular Devices). To probe the effect of a compound on MT stability the molecule was added 5 min after initiation of tubulin assembly. The decrease in protein turbidity (350 nm) resulting from MT depolymerization was followed for 15 min at 37°C [13]. Quantitative comparisons of drug effects on tubulin assembly were also examined in 0.8 M glutamate with a 15 min drug-tubulin preincubation prior to the addition of GTP [14]. Tubulin assembly was monitored for 20 min at 30°C in Beckman DU7400/7500 spectrophotometers, and the compound concentration inhibiting tubulin assembly by 50% was determined.

[2] = test system: taxol-stabilized MTs; assay: Compound-based depolymerization of taxol-stabilized MTs in vitro; assay type: biochemical, bovine; settings: compound 50 µmol/l; for Taxol-stabilized MT population depolymerized: taxol (20 µmol/l)-stabilized MTs
Experimental: To test this hypothesis, we treated HeLa cells with 0.5 µmol/l taxol, thereby arresting them in metaphase with stabilized spindles. […] To quantify the taxol-mediated inhibition of MT disassembly by compound B, we measured in vitro the depolymerization of taxol (20 µmol/l)-stabilized MTs following incubation with 50 µmol/l compound B (the screen condition). Nocodazole and maytansine (both at 50 µmol/l) were included as controls. At 50 µmol/l, compound B depolymerized 3% of the taxol-stabilized MT population, while nocodazole and maytansine depolymerized 11% and 31% of the taxol-treated MTs, respectively (Fig. 4B). […] This finding further supports our hypothesis that the interaction of compound B with the stabilized MTs must have prevented the Ndc80^488 complex from establishing contact with the MT surface.
MTs were polymerized (30 min, 37°C) from a 1∶10 mixture of rhodamine-labeled:unlabeled bovine brain αβ-tubulin (Cytoskeleton) in BRB-80 buffer (80 mmol/l PIPES pH 6.8, 1 mmol/l MgCl2, 1 mmol/l EGTA) and were then stabilized with 20 µmol/l taxol. The Ndc80^488 complex (0.1 µmol/l) was incubated with 100 µmol/l compound (30 min, 24°C) in 96-well polypropylene plates (Eppendorf). The 10,000 compound DIVERset library (Chembridge) and 200 compounds from the Department of Medicinal Chemistry and Technologies, University of Rome La Sapienza were used in the screen. Next, the MTs (100 nmol/l) were added to the compound-Ndc80^488 complex solution in a 1∶1 v/v ratio. After incubation (10 min, 24°C), the reaction mixtures were transferred to 96-well glass-bottom plates (Greiner Bio-one). Each well was imaged at 519 nm and 590 nm with an IX81 Olympus inverted wide-field microscope (Olympus). Total internal reflection fluorescence imaging was performed with an Olympus IX71 inverted wide-field microscope (Olympus). ImageJ was used for image processing (NIH, USA).
Taxol-stabilized MTs were prepared and diluted as described for the Ndc80^488 binding experiments. Varying compound concentrations in 10 µl of DMSO were added to 490 µl of diluted MTs at 37°C. Following incubation (30 min, 37°C), 450 µl of each mixture was centrifuged (10 min; 30,000 rpm; 37°C) in a Beckman Optima TLX centrifuge (TLA120.1 rotor). Pellets were dissolved in 25 µl of 8 mol/l urea, and the protein content of 20 µl was compared with that from pellets formed without compound.

[3] = test system: αβ-tubulin; assay: Tubulin polymerization tracked turbidimetrically at 350 nm; assay type: biochemical; settings: for IC50: 10 µmol/l αβ-tubulin, GTP-containing buffer, turbidity 350 nm, read-out: IC50 for inhibition of tubulin polymerization
Experimental: as §1, §2

Row | SMILES | Fold difference between concentration inhibiting tubulin polymerization and that needed to disassemble MTs [1] | Drug:tubulin molar ratio at which MT stability is affected / MT depolymerization induced ([1]; MTs from 10 µmol/l αβ-tubulin, compound added 5 min into the reaction) | Taxol-stabilized MT population depolymerized [2] [%] | IC50 [3] [µM] | Fold more effective than compound B in inhibiting tubulin polymerization ([3]; versus compound B) [fold] | Ability to depolymerize MTs, fold higher than that of compound B ([1]; non-stabilized MTs in vitro) [fold] | Ability to depolymerize MTs, higher than that of nocodazole ([1]; non-stabilized MTs in vitro) [%] | Depolymerization of taxol-stabilized MTs [2] | Fold lower IC50 for inhibiting tubulin assembly than that of compound B ([3]; turbidimetric, versus compound B) [fold]
1 | COC(=O)Nc1nc2ccc(C(=O)c3cccs3)cc2[nH]1 [nocodazole, reference compound] | […] | […] | 11 | […] | […] |  |  |  | 
2 | CCSCCOC(=O)c1[nH]c2c(c1C)C(=O)C[C@@H](c1ccco1)C2 [A8] |  |  |  |  |  | 12 | 10 | mildly depolymerized | 4.2
3 | Cc1c(C(=O)OCC2CCCO2)[nH]c2c1C(=O)CC(c1ccco1)C2 (stereo not drawn) [compound B, 6-furan-2-yl-3-methyl-4-oxo-4,5,6,7,-tetrahydro-1H-indole-2-carboxylic acid tetrahydro-furan-2-ylmethyl ester] | at least 40 fold |  | 3 | 5.5 |  |  |  |  | 
